We go through 27 compounds from patent publication US9777000B2, “Pyrazole derivative” (MOCHIDA PHARMACEUTICAL CO., LTD., priority 2013, dated 2017).

The structures appear in SMILES notation.

Sequence of human PDE10 (Q9Y233 whole entry): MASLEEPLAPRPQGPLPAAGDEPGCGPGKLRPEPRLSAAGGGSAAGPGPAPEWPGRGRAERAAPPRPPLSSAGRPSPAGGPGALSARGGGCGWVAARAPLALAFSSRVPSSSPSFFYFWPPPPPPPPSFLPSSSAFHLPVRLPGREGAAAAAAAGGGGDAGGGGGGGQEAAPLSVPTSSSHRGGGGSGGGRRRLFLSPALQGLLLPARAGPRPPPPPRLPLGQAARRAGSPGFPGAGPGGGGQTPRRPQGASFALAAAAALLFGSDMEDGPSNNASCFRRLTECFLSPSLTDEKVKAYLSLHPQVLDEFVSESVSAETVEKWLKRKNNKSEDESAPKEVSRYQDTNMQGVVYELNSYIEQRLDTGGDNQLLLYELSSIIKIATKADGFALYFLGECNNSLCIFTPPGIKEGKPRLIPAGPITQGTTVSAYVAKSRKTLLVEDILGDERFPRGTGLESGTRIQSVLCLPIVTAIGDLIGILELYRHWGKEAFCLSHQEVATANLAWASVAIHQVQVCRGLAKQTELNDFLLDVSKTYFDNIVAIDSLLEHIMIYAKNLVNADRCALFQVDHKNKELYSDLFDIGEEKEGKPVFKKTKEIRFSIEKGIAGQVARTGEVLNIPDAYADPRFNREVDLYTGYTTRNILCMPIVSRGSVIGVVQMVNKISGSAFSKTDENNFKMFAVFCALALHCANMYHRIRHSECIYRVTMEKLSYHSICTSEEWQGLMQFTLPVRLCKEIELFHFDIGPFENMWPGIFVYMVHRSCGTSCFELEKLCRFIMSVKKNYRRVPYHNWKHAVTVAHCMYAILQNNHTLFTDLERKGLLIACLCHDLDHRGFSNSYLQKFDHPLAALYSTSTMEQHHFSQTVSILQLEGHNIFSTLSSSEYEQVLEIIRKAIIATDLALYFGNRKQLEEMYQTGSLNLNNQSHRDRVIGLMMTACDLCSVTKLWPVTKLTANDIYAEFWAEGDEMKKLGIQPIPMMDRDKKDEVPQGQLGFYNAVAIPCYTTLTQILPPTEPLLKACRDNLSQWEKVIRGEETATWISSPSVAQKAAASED

This assay deals with human PDE10 (Homo sapiens (Human), UniProt Q9Y233). Kind of assay: Evaluation of enzyme inhibitory activity: human PDE10 inhibitory effect (IMAP TR-FRET). Type of assay: biochemical. Conditions: cAMP substrate. As to the method:
(Evaluation of Enzyme Inhibitory Activity: Human PDE10 Inhibitory Effect)
IMAP TR-FRET Phosphodiersterase Evaluation Assay Kit (Molecular Device) was used for the measurement. Ten μL of a diluted test compound having each concentration and 5 μL of the enzyme PDE10 (BPA Bioscience) that had been diluted to 2 ng/mL with 1×IMAP Reaction Buffer (prepared with 5×included with the kit, 10 mM Tris-HCl, pH=7.2, 10 mM MgCl2, 0.05% NaN3, and 0.1% BSA) containing 0.1% BSA were added to a 384-well plate (Corning). The obtained mixture was then pre-incubated at room temperature for 5 minutes. Thereafter, 5 μL of cAMP substrate solution which was included with the kit and diluted to 400 nM with 1×IMAP Reaction Buffer containing 0.1% BSA, was added to the reaction solution, and the obtained mixture was reacted at room temperature for 60 minutes. Thereafter, 60 μL of an IMAP TR-FRET Binding solution included with the kit was further added to the reaction solution, and the obtained mixture was then left for 3 hours or more. Subsequently, using ARVO SX (PerkinElmer), the fluorescent intensity of Terbium (Emission=490 nm) and TR-FRET (Emission=520 nm) in the reaction solution were measured at an excitation wavelength of 340 nm, so as to calculate the amount of the generated 5′-AMP. The count of a well to which a solvent had been added instead of the test compound was set at 0%, and the count of a well to which the enzyme PDE10 had not been added was set at 100%. Thus, the inhibitory activity of each test compound was calculated.
The PDE10 inhibitory activity of the test compound was indicated with an IC50 value. […] The test compounds are shown in Table 3 (Table 3-1 and Table 3-2).
Take `CCc1sc(-c2cnn(C)c2C(=O)NC2CCn3nc(-c4ccccc4)nc3C2)nc1C(F)F` (stereo not drawn) [Example 5.6, 4-(4-(difluoromethyl)-5-ethylthiazol-2-yl)-1-methyl-N-(2-phenyl-5,6,7,8-tetrahydro-[1,2,4]triazolo[1,5-a]pyridin-7-yl)-1H-pyrazole-5-carboxamide]: the half-inhibitory concentration (IC50) (commonly the concentration that gives 50% inhibition) was less than 5 nM.
In turn, `Cn1ncc(-c2nc(C(F)F)cs2)c1C(=O)NC1CCn2cc(-c3ccccc3)nc2C1` (stereo not drawn) [Example 2.4, 4-(4-(difluoromethyl)thiazol-2-yl)-1-methyl-N-(2-phenyl-5,6,7,8-tetrahydroimidazo[1,2-a]pyridin-7-yl)-1H-pyrazole-5-carboxamide] showed a 50% inhibitory concentration (IC50) of less than 5 nM.
The figure for `Cc1cccc(-c2cnn(C)c2C(=O)NC2CCn3cc(-c4ccccc4)nc3C2)n1` (stereo not drawn) [Example 2.9, 1-methyl-4-(6-methylpyridin-2-yl)-N-(2-phenyl-5,6,7,8-tetrahydroimidazo[1,2-a]pyridin-7-yl)-1H-pyrazole-5-carboxamide] is less than 5 nM.
Then `Cc1cncc(-c2cnn(C)c2C(=O)Nc2ccn3nc(N4CCC[C@@H]4C)nc3c2)n1` [Example 4.6, (S)-1-methyl-4-(6-methylpyrazin-2-yl)-N-(2-(2-methylpyrrolidin-1-yl)-[1,2,4]triazolo[1,5-a]pyridin-7-yl)-1H-pyrazole-5-carboxamide], with less than 5 nM; and `CCc1csc(-c2cnn(C)c2C(=O)Nc2ccn3nc(-c4ccccc4)nc3c2)n1` [Example 3.18, 4-(4-ethylthiazol-2-yl)-1-methyl-N-(2-phenyl-[1,2,4]triazolo[1,5-a]pyridin-7-yl)-1H-pyrazole-5-carboxamide], with less than 5 nM.
`Cn1ncc(-c2cccc(C(F)(F)F)n2)c1C(=O)Nc1ccn2nc(N3CCCC3)nc2c1` [Example 4.27, 1-methyl-N-(2-(pyrrolidin-1-yl)-[1,2,4]triazolo[1,5-a]pyridin-7-yl)-4-(6-(trifluoromethyl)pyridin-2-yl)-1H-pyrazole-5-carboxamide] registered a concentration for half-maximal inhibition (IC50) of less than 5 nM.
Then `Cn1ncc(-c2nc(C(F)F)cs2)c1C(=O)Nc1ccn2nc(N3CC[C@H](F)C3)nc2c1` [Example 4.15, (S)-4-(4-(difluoromethyl)thiazol-2-yl)-N-(2-(3-fluoropyrrolidin-1-yl)-[1,2,4]triazolo[1,5-a]pyridin-7-yl)-1-methyl-1H-pyrazole-5-carboxamide], with less than 5 nM; and `Cn1ncc(-c2nc(C(F)F)cs2)c1C(=O)Nc1ccn2nc(N3CC[C@@H](F)C3)nc2c1` [Example 4.12, (R)-4-(4-(difluoromethyl)thiazol-2-yl)-N-(2-(3-fluoropyrrolidin-1-yl)-[1,2,4]triazolo[1,5-a]pyridin-7-yl)-1-methyl-1H-pyrazole-5-carboxamide], with less than 5 nM; and `Cc1ccnnc1-c1cnn(C)c1C(=O)Nc1cc2nc(-c3ccccc3)nn2cc1F` [Example 3.24, N-(6-fluoro-2-phenyl-[1,2,4]triazolo[1,5-a]pyridin-7-yl)-1-methyl-4-(4-methylpyridazin-3-yl)-1H-pyrazole-5-carboxamide], with less than 5 nM.
`Cc1cncc(-c2cnn(C)c2C(=O)Nc2ccn3nc(N4CC[C@H](F)C4)nc3c2)n1` [Example 4.19, (S)-N-(2-(3-fluoropyrrolidin-1-yl)-[1,2,4]triazolo[1,5-a]pyridin-7-yl)-1-methyl-4-(6-methylpyrazin-2-yl)-1H-pyrazole-5-carboxamide] came in with an IC50 of less than 5 nM.
On to `Cc1sc(-c2cnn(C)c2C(=O)NC2CCn3nc(-c4ccc(F)cc4)nc3C2)nc1C(F)F` (stereo not drawn) [Example 5.36, 4-(4-(difluoromethyl)-5-methylthiazol-2-yl)-N-(2-(4-fluorophenyl)-5,6,7,8-tetrahydro-[1,2,4]triazolo[1,5-a]pyridin-7-yl)-1-methyl-1H-pyrazole-5-carboxamide], for which the IC50 was less than 5 nM.
In turn, `COc1nccnc1-c1cnn(C)c1C(=O)Nc1cc2nc(-c3ccccc3)nn2cc1F` [Example 3.28, N-(6-fluoro-2-phenyl-[1,2,4]triazolo[1,5-a]pyridin-7-yl)-4-(3-methoxypyrazin-2-yl)-1-methyl-1H-pyrazole-5-carboxamide] displayed an IC50 of less than 5 nM.
Then `Cn1ncc(-c2nc(C(F)F)c(Cl)s2)c1C(=O)Nc1ccn2cc(-c3ccccc3)nc2c1` [Example 1.7, 4-(5-chloro-4-(difluoromethyl)thiazol-2-yl)-1-methyl-N-(2-phenylimidazo[1,2-a]pyridin-7-yl)-1H-pyrazole-5-carboxamide], with less than 5 nM; and `COc1cccnc1-c1cnn(C)c1C(=O)Nc1cc2nc(-c3ccccc3)nn2cc1F` [Example 3.7, N-(6-fluoro-2-phenyl-[1,2,4]triazolo[1,5-a]pyridin-7-yl)-4-(3-methoxypyridin-2-yl)-1-methyl-1H-pyrazole-5-carboxamide], with less than 5 nM.
In turn, `Cc1ccc(-c2cnn(C)c2C(=O)Nc2ccn3cc(-c4ccccc4)nc3c2)nc1` [Example 1.1, 1-methyl-4-(5-methylpyridin-2-yl)-N-(2-phenylimidazo[1,2-a]pyridin-7-yl)-1H-pyrazole-5-carboxamide] displayed an IC50 of less than 5 nM.
Then `Cn1ncc(-c2nc(C(F)(F)F)cs2)c1C(=O)Nc1ccn2nc(N3CC[C@H](F)C3)nc2c1` [Example 4.22, (S)-N-(2-(3-fluoropyrrolidin-1-yl)-[1,2,4]triazolo[1,5-a]pyridin-7-yl)-1-methyl-4-(4-(trifluoromethyl)thiazol-2-yl)-1H-pyrazole-5-carboxamide], with less than 5 nM.
The figure for `Cn1ncc(-c2ncncc2Cl)c1C(=O)Nc1cc2nc(-c3ccccc3)nn2cc1F` [Example 3.29, 4-(5-chloropyrimidin-4-yl)-N-(6-fluoro-2-phenyl-[1,2,4]triazolo[1,5-a]pyridin-7-yl)-1-methyl-1H-pyrazole-5-carboxamide] is less than 5 nM; for `Cc1cncnc1-c1cnn(C)c1C(=O)Nc1cc2nc(-c3ccccc3)nn2cc1F` [Example 3.33, N-(6-fluoro-2-phenyl-[1,2,4]triazolo[1,5-a]pyridin-7-yl)-1-methyl-4-(5-methylpyrimidin-4-yl)-1H-pyrazole-5-carboxamide] it is less than 5 nM; for `Cc1ncc(C)c(-c2cnn(C)c2C(=O)Nc2cc3nc(N4CCCC4)nn3cc2F)n1` [Example 4.35, 4-(2,5-dimethylpyrimidin-4-yl)-N-(6-fluoro-2-(pyrrolidin-1-yl)-[1,2,4]triazolo[1,5-a]pyridin-7-yl)-1-methyl-1H-pyrazole-5-carboxamide] it is less than 5 nM.
Then `C[C@@H]1CN(c2nc3cc(NC(=O)c4c(-c5nc(C(F)F)cs5)cnn4C)ccn3n2)C[C@H](C)O1` [Example 3.19, 4-(4-(difluoromethyl)thiazol-2-yl)-N-(2-((2S,6R)-2,6-dimethylmorpholino)-[1,2,4]triazolo[1,5-a]pyridin-7-yl)-1-methyl-1H-pyrazole-5-carboxamide], with less than 5 nM.
The compound `Cn1ncc(-c2nc(C(F)(F)F)cs2)c1C(=O)Nc1ccn2cc(-c3ccccc3)nc2c1` [Example 1.5, 1-methyl-N-(2-phenylimidazo[1,2-a]pyridin-7-yl)-4-(4-(trifluoromethyl)thiazol-2-yl)-1H-pyrazole-5-carboxamide] returned a half-maximal inhibitory concentration (IC50) of less than 5 nM.
Then `Cn1ncc(-c2nc(C(F)(F)F)cs2)c1C(=O)NC1CCn2cc(-c3ccccc3)nc2C1` (stereo not drawn) [Example 2.3, 1-methyl-N-(2-phenyl-5,6,7,8-tetrahydroimidazo[1,2-a]pyridin-7-yl)-4-(4-(trifluoromethyl)thiazol-2-yl)-1H-pyrazole-5-carboxamide], with less than 5 nM; and `Cc1cc(C)nc(-c2cnn(C)c2C(=O)Nc2ccn3nc(N4CCCC4)nc3c2)c1` [Example 4.32, 4-(4,6-dimethylpyridin-2-yl)-1-methyl-N-(2-(pyrrolidin-1-yl)-[1,2,4]triazolo[1,5-a]pyridin-7-yl)-1H-pyrazole-5-carboxamide], with less than 5 nM.
The figure for `Cc1ccnc(-c2cnn(C)c2C(=O)Nc2cc3nc(-c4ccccc4)nn3cc2F)n1` [Example 3.43, N-(6-fluoro-2-phenyl-[1,2,4]triazolo[1,5-a]pyridin-7-yl)-1-methyl-4-(4-methylpyrimidin-2-yl)-1H-pyrazole-5-carboxamide] is less than 5 nM; for `Cn1ncc(-c2nc(C(F)F)cs2)c1C(=O)Nc1ccn2nc(N3CCCC3)nc2c1` [Example 4.25, 4-(4-(difluoromethyl)thiazol-2-yl)-1-methyl-N-(2-(pyrrolidin-1-yl)-[1,2,4]triazolo[1,5-a]pyridin-7-yl)-1H-pyrazole-5-carboxamide] it is less than 5 nM.
Then `Cc1ncc(C)c(-c2cnn(C)c2C(=O)Nc2cc3nc(-c4ccccc4)nn3cc2F)n1` [Example 3.22, 4-(2,5-dimethylpyrimidin-4-yl)-N-(6-fluoro-2-phenyl-[1,2,4]triazolo[1,5-a]pyridin-7-yl)-1-methyl-1H-pyrazole-5-carboxamide], with less than 5 nM.
`Cn1ncc(-c2nc(C(F)F)cs2)c1C(=O)Nc1ccn2nc(-c3cccc(F)c3)nc2c1` [Example 3.17, 4-(4-(difluoromethyl)thiazol-2-yl)-N-(2-(3-fluorophenyl)-[1,2,4]triazolo[1,5-a]pyridin-7-yl)-1-methyl-1H-pyrazole-5-carboxamide] registered an IC50 of less than 5 nM.
